US11161823B2, “Anticancer 1,3-dioxane-4,6-dione derivatives and method of combinatorial synthesis thereof” (National Guard Health Affairs, priority 2019, dated 2021)
Read-outs that look alike come from different tables or passages of the source.

Tests used:
[1] = tested on: MDA MB-231 cell line (Breast); assay: MTT cell proliferation assay, MDA MB-231; type: cell-based, human; conditions: read-out: IC50 μM MDA MB-231 (Breast)
Protocol: (§1) Cell Culture: The human breast cancer epithelial cell lines MDA-MB-231 (HTB-26™), MCF-7 (HTB-22™), colon cancer cell lines HCT 116 (CCL-247™) and […] (CCL-244™) were obtained from American Type Culture Collection (ATCC). Additionally, KAIMRC1 cell line was isolated and developed at KAIMRC from a breast cancer patient. All the cells were grown in advanced DMEM containing 10% fetal bovine serum (FBS), 50 units/mL penicillin, 50 ug/mL streptomycin (GIBCO), and 2 mM glutamine (GIBCO). The cells were cultured at 37° C. in a humidified 5% CO2 atmosphere for 24 hours before experimental procedure.
(§2) Cell Proliferation Assay (MTT): Cells were plated on flat-bottom 96-well plates at a density of 5×10^3 cells/well in 100 μL growth medium. Serial dilutions of the compounds, ranging from 100 nM-100 μM were tested on the cells in triplicates. Additional rows with only the compounds and only cells were added in order to account for the compounds and cells effect. Cells were incubated with compounds for 48 h at 37° C. with 5% CO2.
(§3) After 48 h treatment, the cell viability was determined using the MTT viability assay. Briefly, 5 μL of MTT reagent (5 mg/mL stock) per 95 μl cell culture medium was added to each well and incubated for 3 h at 37° C. with 5% CO2. After 3 h the supernatant was removed, and the MTT formazan crystals were dissolved in dimethyl sulfoxide (DMSO) by shaking the plate for 30 mins at RT. The absorbance was measured on Molecular Devices microplate absorbance reader at 560 nm. The percentage of viable cells was calculated as the ratio of the absorbance of the treated group divided by the absorbance of the control group multiplied by 100. The absorbance from the untreated control cells was set as 100% viable. IC50 values were calculated from dose-response curves generated using a polynomial dose-response approximation using Prism 8 software. The IC50 values (µM) obtained for the compounds of present invention on MDA-MD 231 (breast), MCF-7 (breast), KAIMRC1 (breast), HCT116 (colon) and HCT8 (colon) are summarized in Table 5 and 6.

MCF-7 (Breast) = assay: MTT cell proliferation assay, MCF-7; type: cell-based, human; conditions: read-out: IC50 μM MCF-7 (Breast)
Protocol: as §1, §2, §3

HCT116 (Colon) = assay: MTT cell proliferation assay, HCT116; type: cell-based, human; conditions: read-out: IC50 μM HCT116 (Colon)
Protocol: as §1, §2, §3

KAIMRC1 (Breast) = assay: MTT cell proliferation assay, KAIMRC1; type: cell-based, human; conditions: read-out: IC50 μM KAIMRC1 (Breast)
Text: The immortalized cell lines included in the testing panel of this disclosure are MCF7 (a breast cancer cell line), MCF10 (immortalized human breast epithelial cells), MDA-MB231 (an epithelial, human breast cancer cell line that was established from a pleural effusion of a patient with a metastatic mammary adenocarcinoma), KAIMRC1 (a naturally immortalized human breast carcinoma cell line), KAIMRC2 (a naturally immortalized breast cancer cell line). The primary cells available for lead toxicity assays are, without limitation: hepatocytes (supplied by Xenotech, Bioscience Lonza, Accegen, Biocompare, Gibco, Zen-Bio, Takarabio, AxolBio, Creative Bioarray), cardiomyocytes (supplied by Cellartis, Axolbio, Cedarlanelabs, EMD Millipore, Takara Bio, Neuromics, AcceGene), primary neurons (AcceGen, Cellapplications, Neuromics, Biocompare, AxolBio, BrainXcell), endothelial lining (Thermofisher, Accegen, Biocompare, Promocell, ATCC). Multicellular 3D organoids raised by differentiating iPSC (induced pluripotent stem cells) are provided by Sigma Aldrich (the iPSC cell lines, organoids), Tocris Bioscience, Thermofisher, Stemcell Technologies, Takara Bio, Emulatebio (Human organ chips), Prodolabs.
as §1, §2, §3

ThP1 (leukemia) = assay: Cell Titre Glo luminescent cell viability assay, ThP1; type: cell-based; conditions: Cell Titre Glo luminescence, normalized to DMSO controls
Text: (§4) Another embodiment discloses Titer Glo Assay for the characterization of the synthesized compounds. The CellTiter-Glo® Luminescent Cell Viability Assay is a homogeneous method of determining the number of viable cells in culture based on quantitation of the ATP present, an indicator of metabolically active cells. The CellTiter-Glo® Assay is designed for use with multiwell formats, making it ideal for automated high-throughput screening (HTS), cell proliferation, and cytotoxicity assays. The homogeneous assay procedure involves adding the single reagent (CellTiter-Glo® Reagent) directly to cells cultured in serum-supplemented medium. Cell washing, removal of medium, and multiple pipetting steps are not required. The system detects as few as 15 cells/well in a 384-well format in 10 minutes after adding reagent and mixing.
as §1
(§5) Cell Titre Glo assay was performed on two Leukemia cell lines, HL 60 and ThP1 as per manufacturer's (Promega) recommendations. Briefly, plates were prepared as mentioned in cell culture section. 100 µL of Cell Titre Glo was added directly to the wells. After incubation for 30 minutes at room temperature, luminescence was measured using the Envision plate reader (Perkin Elmer). Luminescence readings were normalized to averaged DMSO controls and expressed as relative percentage. IC50 values were calculated from dose-response curves generated using a polynomial dose-response approximation using Prism 8 software.

HCT 8 (Colon) = assay: MTT cell proliferation assay, HCT 8; type: cell-based, human; conditions: read-out: IC50 μM HCT 8 (Colon)
Protocol: as §1, §2, §3

[2] = tested on: MDA-MD 231 (breast), MCF-7 (breast), KAIMRC1 (breast), HCT116 (colon) and HCT8 (colon); assay: MTT assay, review of Tables 5 and 6 (whole cell line panel); type: cell-based, human; conditions: review of Tables 5 and 6, MTT IC50
Protocol: as §1, §2, §3
The presence of nitrogen in certain positions of quinoline and/or iso-quinoline ring is the structure-activity determinant, and the subsequent variations in the nitrogen positions and substituents in this ring produce stronger leads by the methods of combinatorial expansion disclosed herein.

HL 60 (leukemia) = assay: Cell Titre Glo luminescent cell viability assay, HL 60; type: cell-based; conditions: Cell Titre Glo luminescence, normalized to DMSO controls
Text: as §4, §1, §5

[3] = Homo sapiens, MDA-MB-231, MTT, 48 h treatment, medium with 10% FBS
[4] = Homo sapiens, MCF7, MTT, 48 h treatment, medium with 10% FBS
[5] = Homo sapiens, HCT-8, MTT, 48 h treatment, medium with 10% FBS
[6] = Homo sapiens, HCT-116, MTT, 48 h treatment, medium with 10% FBS
[7] = Homo sapiens, MTT, 48 h treatment, medium with 10% FBS
[8] = MTT, 48 h treatment, medium with 10% FBS

SMILES | IC50 [1, 3] | IC50 (MCF-7 (Breast); [4]) | IC50 (HCT 8 (Colon); [5]) | IC50 (HCT116 (Colon); [6]) | IC50 (KAIMRC1 (Breast); [7]) | also measured
O=C1NC(=O)C(=C/C=C/c2c3ccccc3cc3ccccc23)C(=O)N1 [Example 1, 5-(3-ANTHRACEN-9-YL-ALLYLIDENE)-PYRIMIDINE-2,4,6-TRIONE] | – | – | – | – | – | IC50 ([1]; Homo sapiens, MDA-MB-231, 48 h): 52 µM; IC50 (MCF-7 (Breast); Homo sapiens, MCF7, 48 h): 10.5 µM; IC50 (HCT116 (Colon); Homo sapiens, HCT-116, 48 h): 27.1 µM
CCC1(C)OC(=O)C(=C/C=C/c2c3ccccc3cc3ccccc23)C(=O)O1 (stereo not drawn) [Example 2, 5-(3-ANTHRACEN-9-YL-ALLYLIDENE)-2-ETHYL-2-METHYL-[1,3]DIOXANE-4,6-DIONE] | 25.2 µM | – | – | – | – | –
O=C1NC(=O)C(=C/C=C/c2ccnc3ccccc23)C(=O)N1 [Example 6, 5-(3-QUINOLIN-4-YL-ALLYLIDENE)-PYRIMIDINE-2,4,6-TRIONE] | – | – | – | – | – | IC50 ([1]; Homo sapiens, MDA-MB-231, 48 h): 21.2 µM; IC50 (MCF-7 (Breast); Homo sapiens, MCF7, 48 h): 31.9 µM; IC50 (KAIMRC1 (Breast); Homo sapiens, 48 h): 18 µM
CCC1(C)OC(=O)C(=C/C=C/c2ccncc2)C(=O)O1 (stereo not drawn) [Example 9, 2-ETHYL-2-METHYL-5-(3-PYRIDIN-4-YL-ALLYLIDENE)-[1,3]DIOXANE-4,6-DIONE] | 5.03 µM | 24.2 µM | 2.17 µM | 3.54 µM | 21.6 µM | IC50 (ThP1 (leukemia); Homo sapiens, THP-1): 2.81 µM; range of activity compared with Mitoxanthrone [2]: range of activity that begins to overlap with that of Mitoxanthrone
CC1(C)OC(=O)C(=CC=Cc2cncc3ccccc23)C(=O)O1 [Example 10, 5-(3-ISOQUINOLIN-4-YL-ALLYLIDENE)-2,2-DIMETHYL-[1,3]DIOXANE-4,6-DIONE] | – | – | 1.37 µM | – | 4.45 µM | IC50 (ThP1 (leukemia); Homo sapiens, THP-1): 1.51 µM; range of activity compared with Mitoxanthrone [2]: range of activity that begins to overlap with that of Mitoxanthrone
CC1(C)OC(=O)C(=CC=Cc2ccnc3ccccc23)C(=O)O1 [Example 11, 2,2-DIMETHYL-5-(3-QUINOLIN-4-YL-ALLYLIDENE)-[1,3]DIOXANE-4,6-DIONE] | 14.1 µM | 19.7 µM | 14.1 µM | 10.4 µM | 33.2 µM | IC50 (ThP1 (leukemia); Homo sapiens, THP-1): 1.68 µM; IC50 (HL 60 (leukemia); Homo sapiens, HL-60): 1.86 µM
CCCC1(C)OC(=O)C(=CC=Cc2ccnc3ccccc23)C(=O)O1 (stereo not drawn) [Example 14, 2-METHYL-2-PROPYL-5-(3-QUINOLIN-4-YL-ALLYLIDENE)-[1,3]DIOXANE-4,6-DIONE] | 15.5 µM | 15.2 µM | 18.9 µM | 15.4 µM | 27.6 µM | –
O=C1OC2(CCC2)OC(=O)C1=CC=Cc1ccnc2ccccc12 [Example 15, 7-(3-QUINOLIN-4-YL-ALLYLIDENE)-5,9-DIOXA-SPIRO[3.5]NONANE-6,8-DIONE] | 7.84 µM | – | – | – | – | –
O=C1OC2(CCC2)OC(=O)C1=CC=Cc1cncc2ccccc12 [Example 16, 7-(3-ISOQUINOLIN-4-YL-ALLYLIDENE)-5,9-DIOXA-SPIRO[3.5]NONANE-6,8-DIONE] | – | 5.44 µM | 6.01 µM | 8.04 µM | 8.09 µM | –
O=C1OC2(CCCCC2)OC(=O)C1=CC=Cc1ccnc2ccccc12 [Example 17, 3-(3-QUINOLIN-4-YL-ALLYLIDENE)-1,5-DIOXA-SPIRO[5.5]UNDECANE-2,4-DIONE] | 13 µM | 17.3 µM | 12.9 µM | 13.7 µM | 19.6 µM | –
CC1(C)OC(=O)C(=CC=Cc2cccc3ccccc23)C(=O)O1 [Example 18, 2,2-DIMETHYL-5-(3-NAPHTHALEN-1-YL-ALLYLIDENE)-[1,3]DIOXANE-4,6-DIONE] | – | – | 5.78 µM | – | 6.54 µM | –
CCC1(C)OC(=O)C(=CC=Cc2cccc3ccccc23)C(=O)O1 (stereo not drawn) [Example 19, 2 ETHYL,2-METHYL-5-(3-NAPHTHALEN-1-YL-ALLYLIDENE)-[1,3]DIOXANE-4,6-DIONE] | 5.92 µM | 5.82 µM | 2.95 µM | 2.44 µM | 5.82 µM | –
O=C1OC2(CCC2)OC(=O)C1=CC=Cc1cccc2ccccc12 [Example 20, 7-(3-NAPHTHALEN-1-YL-ALLYLIDENE)-5,9-DIOXA-SPIRO[3.5]NONANE-6,8-DIONE] | – | 4.24 µM | 3.87 µM | 4.84 µM | 11.9 µM | IC50 (ThP1 (leukemia); Homo sapiens, THP-1): 2.04 µM; IC50 (HL 60 (leukemia); Homo sapiens, HL-60): 2.41 µM
CCC1(C)OC(=O)C(=CC=Cc2ccc(OC)c3ccccc23)C(=O)O1 (stereo not drawn) [Example 21, 2-ETHYL-5-[3-(4-METHOXY-NAPHTHALEN-1-YL)-ALLYLIDENE]-2-METHYL-[1,3]DIOXANE-4,6-DIONE] | 17 µM | – | – | 50 µM | – | –
CC1(C)OC(=O)C(=CC#Cc2cccc3ccccc23)C(=O)O1 [Example 28, 2,2-DIMETHYL-5-(3-NAPHTHALEN-1-YL-PROP-2-YNYLIDENE)-[1,3]DIOXANE-4,6-DIONE] | – | – | – | – | – | IC50 (HCT 8 (Colon); Homo sapiens, HCT-8, 48 h): 8.82 µM; IC50 (KAIMRC1 (Breast); Homo sapiens, 48 h): 7.36 µM
CC1(C)OC(=O)C(=CC=Cc2cccc3occc23)C(=O)O1 [Example 32, 5-(3-BENZOFURAN-4-YL-ALLYLIDENE)-2,2-DIMETHYL-[1,3]DIOXANE-4,6-DIONE] | 7.5 µM | – | – | 34.2 µM | – | –
O=C1c2c(O)ccc(O)c2C(=O)c2c(NCCNCCO)ccc(NCCNCCO)c21 [Mitoxanthrone, reference compound] | – | – | – | – | – | IC50 [1, 8]: 0.51 µM; IC50 (MCF-7 (Breast); [8]): 3.61 µM; IC50 (ThP1 (leukemia)): 0.22 µM; IC50 (HCT 8 (Colon); [8]): 1.25 µM; IC50 (HCT116 (Colon); [8]): 0.71 µM; IC50 (HL 60 (leukemia)): 0.7 µM; IC50 (KAIMRC1 (Breast); [8]): 10.1 µM
